The values below come from PubChem BioAssay (NCI).

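Tested at 5 concentrations; 48 h exposure; 96-well plates; endpoints linearly interpolated, else capped at highest concentration. Definition used: TGI = concentration required for complete inhibition of growth.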

Common to all, as to assay: DTP human tumour cell line panel, 48 h
Assay [1] concerns SF-295 CNS.
For assay [2], the system named is COLO 205 colon.
The test system of assay [3] is NCI-H23 lung.
In assay [4] the test system is A498 renal.
The test system of assay [5] is 786-0 renal.
The test system of assay [6] is SK-OV-3 ovarian.
The subject of assay [7] is MDA-MB-435.
Assay [8] concerns LOX IMVI melanoma.
Assay [9] has as its system MALME-3M melanoma.
Assay [10] has as its system SK-MEL-5 melanoma.
The subject of assay [11] is MDA-N.
Assay [12] has as its system EKVX NSCLC.
The test system of assay [13] is NCI-H460 lung.
For assay [14], the system named is MCF7 breast.
Assay [15] concerns HS 578T breast.
Assay [16] has as its system NCI/ADR-RES ovarian.
In assay [17] the test system is CAKI-1 renal.
In assay [18] the test system is RXF 393 renal.

With `O=C1C=CC2(O)OCCN(CCO)C2=C1` (stereo unspecified) (tested in a mixture with another compound), the TGI in [1], in [2], in assay [3], in [4], in assay [5] and in assay [6] was above 100 µM in each case. For the same compound, the TGI in assay [7], in assay [8], in assay [9], in [10], in assay [11] and in assay [12] was above 100 µM each time. Further, the TGI in assay [13], in assay [14], in [15], in assay [16], in [17] and in [18] was above 100 µM in each case.
For `CCN(C(C)=O)c1cnc(/C=N/NC(N)=S)c2ccccc12`, the TGI in [1] was above 68.9 µM; in [2], above 100 µM; in [3], above 100 µM; in [4] it was above 91.6 µM; in [5] it was above 26.6 µM; in assay [6], above 100 µM. In addition, the TGI in [7] is above 100 µM; in [8], 10.1 µM; in [9] it was above 100 µM; in assay [10] it was above 67.1 µM; in [11], above 100 µM; in [12], above 100 µM. Also, the TGI in assay [13] was above 39.1 µM; in [14], above 23.8 µM; in [15] it was above 100 µM; in assay [16], 58.6 µM; in [17] it was above 51.9 µM; in assay [18] it was above 100 µM.
As for `Nc1ccc(CCSSCCc2ccc(N)cc2)cc1`, the TGI in assay [1] was above 100 µM; in assay [2], above 100 µM; in [3] it was above 72.6 µM; in assay [4] it was above 94.7 µM; in assay [5], 36.6 µM; in assay [6], above 100 µM. Besides, the TGI in assay [7] is above 86.9 µM; in [8], above 59.8 µM; in assay [9], 41.6 µM; in assay [10], above 52.7 µM; in [11], above 79.6 µM; in assay [12], above 100 µM. Besides, the TGI in assay [13] is 86.8 µM; in assay [14] it was above 100 µM; in assay [15] it was 66.4 µM; in assay [16], above 74.4 µM; in assay [17], above 85.2 µM; in [18] it was 44.6 µM.
Regarding `NC1CC(Cl)c2c(Cl)sc(Cl)c21` (stereo unspecified), the TGI in [1], in assay [2], in assay [3], in assay [4], in assay [5] and in [6] was above 100 µM throughout. Further, the TGI in assay [7], in assay [8], in assay [9], in assay [10], in assay [11] and in [12] was above 100 µM in each case. In addition, the TGI in [13], in assay [14], in assay [15], in assay [16], in assay [17] and in [18] was above 100 µM throughout.
Take `NC(=S)N/N=C1/CCCC2CCCC[C@@H]12` (stereo partly specified): the TGI in assay [1], in assay [2], in [3], in [4], in assay [5] and in assay [6] was above 100 µM each time. The TGI in assay [7], in [8], in assay [9], in assay [10], in assay [11] and in [12] was above 100 µM in each case. The TGI in assay [13], in assay [14], in assay [15], in assay [16], in [17] and in assay [18] was above 100 µM each time.
On to `O=C(Cc1ccc(Cl)cc1)Nc1ccc2oc(-c3ccccc3)nc2c1`, for which the TGI in [1], in assay [2], in assay [3], in assay [4], in [5] and in [6] was above 100 µM throughout. For the same compound, the TGI in assay [7], in assay [8], in assay [9], in [10], in assay [11] and in assay [12] was above 100 µM in each case. For the same compound, the TGI in assay [13], in assay [14], in assay [15], in [16], in [17] and in assay [18] was above 100 µM throughout.
Consider `C[N+]1(Cc2ccc(Cl)c(Cl)c2)CCCC1C1CCCN(Cc2ccc(Cl)c(Cl)c2)C1` (stereo unspecified), for which the TGI in [1], in assay [2], in assay [3], in assay [4], in assay [5] and in assay [6] was above 100 µM in each case. In addition, the TGI in assay [7], in [8], in assay [9], in assay [10], in [11] and in assay [12] was above 100 µM throughout. The TGI in assay [13], in [14], in assay [15], in assay [16], in [17] and in assay [18] was above 100 µM each time.
